From patent US9850283B2, “Macrocyclic inhibitors of the PD-1/PD-L1 and CD80(B7-1)/PD-L1 protein/protein interactions” (BRISTOL-MYERS SQUIBB COMPANY, priority 2013, dated 2017)
Like-named read-outs stand apart in the source and are kept apart here. Starred links: 1 amine or outer side, 2 acyl side, 3 side chain; linkers in the order of their positions; H or OH if unused. Positions of bridges follow the written chain, without caps; N, C: chain ends. Non-standard residues stand in square brackets, D forms with d. Residues, ends and D or L forms follow the SMILES beside them. ξ: configuration not given here. *: point of attachment. X7 = COc1ccc(-c2[nH]c3ccccc3c2C[C@H](N[*:1])C(=O)[*:2])cc1; Ala(4-thiazolyl) = N[C@@H](Cc1cscn1)C(=O)O; Phe(4-Me) = Cc1ccc(C[C@H](N)C(=O)O)cc1; Pro(3S-OH) = O=C(O)[C@H]1NCC[C@@H]1O; Bta = N[C@@H](Cc1csc2ccccc12)C(=O)O; Hyp = O=C(O)[C@@H]1C[C@@H](O)CN1; NMeF = CN[C@@H](Cc1ccccc1)C(=O)O; NMeNle = CCCC[C@H](NC)C(=O)O; NMeM = CN[C@@H](CCSC)C(=O)O; NMeS = CN[C@@H](CO)C(=O)O; ξR = N=C(N)NCCCC(N)C(=O)O; NMeA = CN[C@@H](C)C(=O)O; Dab = NCC[C@H](N)C(=O)O; Dap = NC[C@H](N)C(=O)O; Bn = c1ccc(C*)cc1; ξC = NC(CS)C(=O)O; Sar = CNCC(=O)O

Assays:
Human PD-L1/PD-1 = biological target: T1, Human PD-L1/PD-1 (Homo sapiens, UniProt Q9NZQ7); assay: HTRF PD-1-Ig/PD-L1-His binding assay (human PD-L1); details: cluster symbol; read-out: HTRF IC50 cluster
T1 construct: made in house; host or cells: HEK293T
In short: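 Soluble PD-1-Ig binding to PD-L1-His measured by HTRF in dPBS with 0.1% BSA and 0.05% Tween-20. Detection used europium cryptate anti-Ig antibody (1 nM final) and APC anti-His antibody (20 nM final) added on top of the binding reaction.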

[1] = biological target: T2, LK35.2-hPD-L1 cells / PE-labeled PD-1-Ig (Homo sapiens, UniProt Q9NZQ7); assay: LK35.2-hPD-L1 cell binding high-content screening assay; assay type: cell-based; details: cluster symbol, read-out: CBA IC50 cluster
T2 construct: expressed in transfected cells; host or cells: LK35.2 mouse B cell line
In short: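 Using overnight-cultured LK35.2-hPD-L1 mouse B cells, compound was co-incubated with phycoerythrin-tagged human PD-1-Ig (final 1 nM) at 37 °C for one hour. Unbound label was removed by triple dPBS washing prior to high-content image acquisition and analysis.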

[2] = cell line of CBA not given (LK35.2-hPD-L1 or 293T-hPD-L1)
[3] = cell binding assay, cell line not given

T2 sequence (Q9NZQ7 19-290): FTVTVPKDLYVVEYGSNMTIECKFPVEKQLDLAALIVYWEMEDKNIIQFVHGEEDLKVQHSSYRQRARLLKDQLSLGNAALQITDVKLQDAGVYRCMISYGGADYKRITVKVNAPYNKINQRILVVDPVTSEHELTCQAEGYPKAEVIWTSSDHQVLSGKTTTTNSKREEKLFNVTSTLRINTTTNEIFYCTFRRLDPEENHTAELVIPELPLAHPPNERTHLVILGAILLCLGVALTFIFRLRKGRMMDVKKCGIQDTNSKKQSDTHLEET
T1 sequence (Q9NZQ7 with tags, fused parts or gaps): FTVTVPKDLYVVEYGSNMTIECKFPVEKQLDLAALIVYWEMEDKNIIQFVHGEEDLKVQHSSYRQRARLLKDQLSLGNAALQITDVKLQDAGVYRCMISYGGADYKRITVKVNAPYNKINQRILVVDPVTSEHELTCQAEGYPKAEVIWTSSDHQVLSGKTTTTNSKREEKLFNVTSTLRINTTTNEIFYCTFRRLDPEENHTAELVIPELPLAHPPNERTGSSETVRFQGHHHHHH

Compound	IC50 (Human PD-L1/PD-1) [nM]	IC50 [1, 2] [nM]	IC50 [1, 3] [nM]
CCCC[C@H]1C(=O)N(C)[C@@H](CCCC)C(=O)N[C@@H](CCCNC(=N)N)C(=O)N[C@H](C(=O)NCC(N)=O)CSCC(=O)N[C@@H](Cc2ccc(O)cc2)C(=O)N2CC[C@H](O)[C@H]2C(=O)N[C@@H](CC(N)=O)C(=O)N2CCC[C@H]2C(=O)N[C@@H](Cc2cnc[nH]2)C(=O)N[C@@H](CC(C)C)C(=O)N2CCC[C@H]2C(=O)N[C@@H](Cc2c[nH]c3ccccc23)C(=O)N[C@@H](CO)C(=O)N[C@@H](Cc2csc3ccccc23)C(=O)N1C [Example 1227] ({CH2CO}-Y[Pro(3S-OH)]NPHLPWS[Bta][NMeNle][NMeNle]RCG-NH2; thioether N-14)	> 30.5	> 74.3	–
CCCC[C@H]1C(=O)N(C)CC(=O)N[C@@H](CC(=O)O)C(=O)N[C@@H](C(C)C)C(=O)N(C)[C@@H](Cc2ccccc2)C(=O)N[C@@H](Cc2ccc(O)cc2)C(=O)N(C)CC(=O)N[C@@H](Cc2c[nH]c3ccccc23)C(=O)N[C@@H](Cc2ccc(O)cc2)C(=O)N[C@@H](CN)C(=O)N[C@H](C(=O)NCC(N)=O)CSCC(=O)N[C@@H](Cc2ccccc2)C(=O)N(C)[C@@H](Cc2ccccc2)C(=O)N1C [Example 3161] ({CH2CO}-F[NMeF][NMeNle][Sar]DV[NMeF]Y[Sar]WY[Dap]CG-NH2; thioether N-13)	6.76 to 30.3	4.78 to 72.9	–
CCCC[C@H]1C(=O)N(C)CC(=O)N[C@@H](CC(=O)O)C(=O)N[C@@H](C(C)C)C(=O)N(C)[C@@H](Cc2ccccc2)C(=O)N[C@@H](Cc2ccc(O)cc2)C(=O)N(C)CC(=O)N[C@@H](Cc2c[nH]c3ccccc23)C(=O)N[C@@H](Cc2ccc(O)cc2)C(=O)N[C@@H](CC(C)C)C(=O)N[C@H](C(=O)NCC(N)=O)CSCC(=O)N[C@@H](Cc2cscn2)C(=O)N(C)[C@@H](Cc2ccccc2)C(=O)N1C [Example 3092] ({CH2CO}-[Ala(4-thiazolyl)][NMeF][NMeNle][Sar]DV[NMeF]Y[Sar]WYLCG-NH2; thioether N-13)	> 30.5	> 74.3	–
CCCC[C@H]1C(=O)N[C@@H](C)C(=O)NC(C(=O)NCC(N)=O)CSCC(=O)N[C@@H](Cc2ccc(O)cc2)C(=O)N(C)[C@@H](C)C(=O)N[C@@H](CC(N)=O)C(=O)N2CCC[C@H]2C(=O)N[C@@H](CN)C(=O)N[C@@H](CC(C)C)C(=O)N2C[C@H](O)C[C@H]2C(=O)N[C@@H](Cc2c[nH]c3ccccc23)C(=O)N[C@@H](CO)C(=O)N[C@@H](Cc2csc3ccccc23)C(=O)N(C)[C@@H](CCSC)C(=O)N1C (stereo partly shown) [Example 9096] ({CH2CO}-Y[NMeA]NP[Dap]L[Hyp]WS[Bta][NMeM][NMeNle]A[ξC]G-NH2; thioether N-14)	0.385 to 6.74	–	0.158 to 4.71
CCCC[C@H]1C(=O)N(C)[C@@H](CCCC)C(=O)N[C@@H](C)C(=O)N[C@H](C(=O)NCC(N)=O)CSCC(=O)N[C@@H](Cc2ccc(O)cc2)C(=O)N(C)[C@@H](C)C(=O)N[C@@H](CCC(=O)O)C(=O)N2CCC[C@H]2C(=O)N[C@@H](Cc2cnc[nH]2)C(=O)N[C@@H](CC(C)C)C(=O)N2C[C@H](O)C[C@H]2C(=O)N[C@@H](Cc2c[nH]c3ccccc23)C(=O)N[C@@H](CO)C(=O)N[C@@H](Cc2c[nH]c3ccccc23)C(=O)N1C [Example 1169]	6.76 to 30.3	4.78 to 72.9	–
CCCC[C@H]1C(=O)N(C)[C@@H](CCCC)C(=O)N[C@@H](CN)C(=O)N[C@H](C(=O)NCC(N)=O)CSCC(=O)N[C@@H](Cc2ccc(O)cc2)C(=O)N(C)[C@@H](C)C(=O)N[C@@H](CC(N)=O)C(=O)N2CCC[C@H]2C(=O)N[C@@H](CN)C(=O)N[C@@H](CC(=O)O)C(=O)N2C[C@H](O)C[C@H]2C(=O)N[C@@H](Cc2c[nH]c3ccccc23)C(=O)N[C@@H](CCN)C(=O)N[C@@H](Cc2csc3ccccc23)C(=O)N1C [Example 1226] ({CH2CO}-Y[NMeA]NP[Dap]D[Hyp]W[Dab][Bta][NMeNle][NMeNle][Dap]CG-NH2; thioether N-14)	0.385 to 6.74	0.158 to 4.71	–
CCCC[C@H]1C(=O)N(C)CC(=O)N[C@@H](CC(=O)O)C(=O)N[C@@H](C(C)C)C(=O)N(C)[C@@H](Cc2ccccc2)C(=O)N[C@@H](Cc2ccc(O)cc2)C(=O)N(C)CC(=O)N[C@@H](Cc2c[nH]c3ccccc23)C(=O)N[C@@H](Cc2ccc(O)cc2)C(=O)N[C@@H](Cc2ccc(C)cc2)C(=O)N[C@H](C(=O)NCC(N)=O)CSCC(=O)N[C@@H](Cc2ccccc2)C(=O)N(C)[C@@H](Cc2ccccc2)C(=O)N1C [Example 3107] ({CH2CO}-F[NMeF][NMeNle][Sar]DV[NMeF]Y[Sar]WY[Phe(4-Me)]CG-NH2; thioether N-13)	6.76 to 30.3	4.78 to 72.9	–
CCCC[C@H]1C(=O)N(C)[C@@H](COCc2ccccc2)C(=O)N[C@@H](CCCNC(=N)N)C(=O)N[C@H](C(=O)NCC(N)=O)CSCC(=O)N[C@@H](Cc2ccccc2)C(=O)N(C)[C@@H](C)C(=O)N[C@@H](CC(N)=O)C(=O)N2CCC[C@H]2C(=O)N[C@@H](Cc2cnc[nH]2)C(=O)N[C@@H](CC(C)C)C(=O)N(C)CC(=O)N[C@@H](Cc2c[nH]c3ccccc23)C(=O)N[C@@H](CO)C(=O)N[C@@H](Cc2c[nH]c3ccccc23)C(=O)N1C [Example 6016] ({CH2CO}-F[NMeA]NPHL[Sar]WSW[NMeNle][NMeS](Bn)RCG-NH2; thioether N-14)	6.76 to 30.3	–	4.78 to 72.9
CCCC[C@H]1C(=O)N(C)[C@@H](CCCC)C(=O)N[C@@H](C)C(=O)N[C@H](C(=O)NCC(N)=O)CSCC(=O)N[C@@H](Cc2ccc(O)cc2)C(=O)N2CCC[C@H]2C(=O)N[C@@H](CC(=O)O)C(=O)N2CCC[C@H]2C(=O)N[C@@H](CN)C(=O)N[C@@H](CC(C)C)C(=O)N2C[C@H](O)C[C@H]2C(=O)N[C@@H](Cc2c[nH]c3ccccc23)C(=O)N[C@@H](CO)C(=O)N[C@@H](Cc2c[nH]c3ccccc23)C(=O)N1C [Example 1152] ({CH2CO}-YPDP[Dap]L[Hyp]WSW[NMeNle][NMeNle]ACG-NH2; thioether N-14)	6.76 to 30.3	4.78 to 72.9	–
CCCC[C@H]1C(=O)N[C@H](CCC(=O)O)C(=O)N[C@@H](CC(=O)O)C(=O)N[C@@H](C(C)C)C(=O)N(C)[C@@H](Cc2ccccc2)C(=O)N[C@@H](Cc2ccc(O)cc2)C(=O)N(C)CC(=O)N[C@@H](Cc2c[nH]c3ccccc23)C(=O)N[C@@H](Cc2ccc(O)cc2)C(=O)N[C@@H](CC(C)C)C(=O)N[C@H](C(=O)NCC(N)=O)CSCC(=O)N[C@@H](Cc2ccccc2)C(=O)N(C)[C@@H](Cc2ccccc2)C(=O)N1C [Example 3527] (HELM PEPTIDE1{[O=C(C[*:3])[*:2]].F.[meF].[CCCC[C@@H](C(=O)[*:2])N(C)[*:1]].[dE].D.V.[meF].Y.[Sar].W.Y.L.C.G.[am]}$PEPTIDE1,PEPTIDE1,1:R3-14:R3$$$V2.0)	6.76 to 30.3	–	4.78 to 72.9
CCCC[C@H]1C(=O)N(C)[C@@H](CCCC)C(=O)NC(CCCNC(=N)N)C(=O)N[C@H](C(=O)NCC(N)=O)CSCC(=O)N[C@@H](Cc2ccc(O)cc2)C(=O)N(C)[C@@H](C)C(=O)N[C@@H](CC(N)=O)C(=O)N2CCC[C@H]2C(=O)N[C@@H](CN)C(=O)N[C@@H](CC(C)C)C(=O)N2C[C@H](O)C[C@H]2C(=O)N[C@@H](Cc2c[nH]c3ccccc23)C(=O)N[C@@H](CO)C(=O)N[C@@H](Cc2c(-c3ccc(OC)cc3)[nH]c3ccccc23)C(=O)N1C (stereo partly shown) [Example 7006] ({CH2CO}-Y[NMeA]NP[Dap]L[Hyp]WS[X7][NMeNle][NMeNle][ξR]CG-NH2; thioether N-14)	0.385 to 6.74	–	0.158 to 4.71
